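A five-concentration, 48-hour dose response in 96-well plates underlies each endpoint, interpolated linearly between surrounding concentrations. TGI is the concentration that stops growth completely.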
Tests used:
Test in all cases: NCI-60 cell line screen, 48 h
[1] = tested on: SK-MEL-5 melanoma
[2] = tested on: HCT-116 colon
[3] = tested on: SNB-19 CNS
[4] = tested on: MALME-3M melanoma
[5] = tested on: EKVX NSCLC
[6] = tested on: NCI/ADR-RES ovarian
[7] = tested on: SK-MEL-28 melanoma
[8] = tested on: MDA-MB-231 breast
[9] = tested on: COLO 205 colon
[10] = tested on: OVCAR-5 ovarian
[11] = tested on: NCI-H226 lung
[12] = tested on: SF-295 CNS
[13] = tested on: KM12 colon
[14] = tested on: NCI-H23 lung
[15] = tested on: HCT-15 colon
[16] = tested on: UACC-62 melanoma
[17] = tested on: HOP-62 NSCLC
[18] = tested on: DU-145 prostate
[19] = tested on: CAKI-1 renal
[20] = tested on: SF-539 CNS
[21] = tested on: OVCAR-3 ovarian
[22] = tested on: A549 NSCLC
[23] = tested on: SNB-75 CNS
[24] = tested on: M14 melanoma
[25] = tested on: TK-10 renal
[26] = tested on: UACC-257 melanoma
[27] = tested on: MDA-N
[28] = tested on: RPMI-8226 leukemia
[29] = tested on: SK-MEL-2 melanoma
[30] = tested on: A498 renal
[31] = tested on: PC-3 prostate
[32] = tested on: BT-549 breast
[33] = tested on: OVCAR-4 ovarian
[34] = tested on: MCF7 breast
[35] = tested on: 786-0 renal
[36] = tested on: HCC-2998 colon
[37] = tested on: MDA-MB-435
[38] = tested on: UO-31 renal
[39] = tested on: ACHN renal
[40] = tested on: CCRF-CEM leukemia
[41] = tested on: SK-OV-3 ovarian
[42] = tested on: NCI-H460 lung
[43] = tested on: SF-268 CNS
[44] = tested on: T-47D breast
[45] = tested on: SN12C renal
[46] = tested on: U251 CNS
[47] = tested on: NCI-H522 lung
[48] = tested on: HOP-92 NSCLC
[49] = tested on: HT29 colon
[50] = tested on: OVCAR-8 ovarian
[51] = tested on: K-562 leukemia
[52] = tested on: SW-620 colon
[53] = tested on: LOX IMVI melanoma
[54] = tested on: HS 578T breast
[55] = tested on: SR leukemia
[56] = tested on: HL-60(TB) leukemia
[57] = tested on: IGROV1 ovarian
[58] = tested on: MOLT-4 leukemia
[59] = tested on: RXF 393 renal

For C=CCOC(=O)CCCCCCCCCCCCCCCOC(=O)c1c(CCC[C@@H](C)O[Si](C)(C)C(C)(C)C)nc(=O)n2c1CC[C@H]2CC1(CC/C=C\[C@H](CC)O[Si](C(C)C)(C(C)C)C(C)C)OCCO1, the TGI [1] was 46.8 µM, the TGI [2] was greater than 100 µM and the TGI [3] was greater than 100 µM. For the same compound, the TGI [4] was greater than 100 µM, the TGI [5] was greater than 100 µM and the TGI [6] was greater than 100 µM. It also gave a TGI [7] greater than 100 µM, a TGI [8] of 54.3 µM and a TGI [9] greater than 100 µM. It also gave a TGI [10] greater than 100 µM, a TGI [11] greater than 100 µM and a TGI [12] greater than 100 µM. The TGI [13] was greater than 100 µM, the TGI [14] was greater than 100 µM and the TGI [15] was greater than 100 µM. It also gave a TGI [16] greater than 100 µM, a TGI [17] greater than 100 µM and a TGI [18] greater than 100 µM. For the same compound, the TGI [19] was greater than 100 µM, the TGI [20] was greater than 100 µM and the TGI [21] was greater than 100 µM. The TGI [22] was greater than 100 µM, the TGI [23] was greater than 100 µM and the TGI [24] was greater than 100 µM. It also gave a TGI [25] greater than 100 µM, a TGI [26] greater than 100 µM and a TGI [27] greater than 100 µM. It also gave a TGI [28] greater than 100 µM, a TGI [29] greater than 100 µM and a TGI [30] greater than 100 µM. The TGI [31] was greater than 100 µM, the TGI [32] was greater than 100 µM and the TGI [33] was greater than 100 µM. For the same compound, the TGI [34] was greater than 100 µM, the TGI [35] was 77.2 µM and the TGI [36] was greater than 100 µM. For the same compound, the TGI [37] was greater than 100 µM, the TGI [38] was 61.3 µM and the TGI [39] was greater than 100 µM. For the same compound, the TGI [40] was greater than 100 µM, the TGI [41] was greater than 100 µM and the TGI [42] was greater than 100 µM. The TGI [43] was greater than 100 µM, the TGI [44] was greater than 100 µM and the TGI [45] was greater than 100 µM. For the same compound, the TGI [46] was 31.8 µM, the TGI [47] was greater than 100 µM and the TGI [48] was 41.9 µM.

Work on c1ccc(SC(Sc2ccccc2)c2ccc3c(c2)OCO3)cc1 yielded a TGI [1] greater than 100 µM, a TGI [2] greater than 100 µM and a TGI [49] greater than 100 µM. It also gave a TGI [3] greater than 100 µM, a TGI [4] greater than 100 µM and a TGI [5] greater than 100 µM. It also gave a TGI [6] greater than 100 µM, a TGI [7] greater than 100 µM and a TGI [8] greater than 100 µM. The TGI [10] was greater than 100 µM, the TGI [11] was greater than 100 µM and the TGI [12] was greater than 100 µM. The TGI [13] was greater than 100 µM, the TGI [14] was greater than 100 µM and the TGI [15] was greater than 100 µM. For the same compound, the TGI [16] was greater than 100 µM, the TGI [17] was greater than 100 µM and the TGI [18] was greater than 100 µM. It also gave a TGI [50] greater than 100 µM, a TGI [19] greater than 100 µM and a TGI [51] greater than 100 µM. It also gave a TGI [21] greater than 100 µM, a TGI [22] greater than 100 µM and a TGI [52] greater than 100 µM. It also gave a TGI [24] greater than 100 µM, a TGI [25] greater than 100 µM and a TGI [26] greater than 100 µM. It also gave a TGI [27] greater than 100 µM, a TGI [53] greater than 100 µM and a TGI [29] greater than 100 µM. It also gave a TGI [30] greater than 100 µM, a TGI [31] greater than 100 µM and a TGI [32] greater than 100 µM. It also gave a TGI [33] greater than 100 µM, a TGI [54] greater than 100 µM and a TGI [55] greater than 100 µM. The TGI [56] was greater than 100 µM, the TGI [35] was greater than 100 µM and the TGI [37] was greater than 100 µM. It also gave a TGI [38] greater than 100 µM, a TGI [57] greater than 100 µM and a TGI [39] greater than 100 µM. It also gave a TGI [40] greater than 100 µM, a TGI [58] greater than 100 µM and a TGI [42] greater than 100 µM. It also gave a TGI [43] greater than 100 µM, a TGI [44] greater than 100 µM and a TGI [59] greater than 100 µM. It also gave a TGI [45] greater than 100 µM, a TGI [46] greater than 100 µM and a TGI [47] greater than 100 µM. For the same compound, the TGI [48] was greater than 100 µM.

Compound COc1ccc(N=Nc2c(C)c(C#N)c(=S)n(C3OC(COC(C)=O)C(OC(C)=O)C(OC(C)=O)C3OC(C)=O)c2-c2ccccc2)cc1 (centres undefined) has a TGI [2] of 15.6 µM, a TGI [49] greater than 100 µM and a TGI [3] of 24.2 µM. It also gave a TGI [4] of 29.9 µM, a TGI [6] of 24.4 µM and a TGI [7] of 20.3 µM. For the same compound, the TGI [8] was 22.3 µM, the TGI [9] was 22.9 µM and the TGI [10] was 30.8 µM. The TGI [12] was 82.1 µM, the TGI [13] was 20.6 µM and the TGI [14] was 34.6 µM. The TGI [15] was 77.2 µM, the TGI [17] was 26.5 µM and the TGI [18] was 19.6 µM. For the same compound, the TGI [19] was 21.3 µM, the TGI [51] was greater than 100 µM and the TGI [21] was 31.1 µM. For the same compound, the TGI [22] was 29.7 µM, the TGI [52] was 11.1 µM and the TGI [24] was 10.7 µM. It also gave a TGI [25] of 34.2 µM, a TGI [26] of 75.8 µM and a TGI [27] of 22.9 µM. For the same compound, the TGI [53] was 17.9 µM, the TGI [28] was greater than 100 µM and the TGI [29] was 22.8 µM. For the same compound, the TGI [30] was 7.09 µM, the TGI [31] was 21.3 µM and the TGI [32] was 17.6 µM. For the same compound, the TGI [33] was 12.1 µM, the TGI [34] was 17.5 µM and the TGI [55] was greater than 100 µM. It also gave a TGI [56] greater than 100 µM, a TGI [35] of 10.4 µM and a TGI [36] greater than 100 µM. It also gave a TGI [37] of 27.4 µM, a TGI [38] of 94.7 µM and a TGI [39] greater than 100 µM. It also gave a TGI [40] greater than 100 µM, a TGI [58] of 47.9 µM and a TGI [42] greater than 100 µM. For the same compound, the TGI [44] was 41.2 µM, the TGI [59] was 23.7 µM and the TGI [45] was 29.9 µM. The TGI [46] was 22.6 µM and the TGI [48] was 7.83 µM.

COc1ccc(-c2oc3cc(OC)c(OC)c(OC)c3c(=O)c2OC)cc1OC showed a TGI [1] greater than 100 µM, a TGI [2] greater than 100 µM and a TGI [49] greater than 100 µM. For the same compound, the TGI [3] was greater than 100 µM, the TGI [4] was greater than 100 µM and the TGI [5] was greater than 100 µM. The TGI [6] was greater than 100 µM, the TGI [7] was greater than 100 µM and the TGI [8] was greater than 100 µM. It also gave a TGI [9] greater than 100 µM, a TGI [10] greater than 100 µM and a TGI [11] greater than 100 µM. It also gave a TGI [12] greater than 100 µM, a TGI [13] greater than 100 µM and a TGI [14] greater than 100 µM. It also gave a TGI [15] greater than 100 µM, a TGI [16] greater than 100 µM and a TGI [17] greater than 100 µM. For the same compound, the TGI [18] was greater than 100 µM, the TGI [50] was greater than 100 µM and the TGI [19] was greater than 100 µM. The TGI [51] was greater than 100 µM, the TGI [20] was greater than 100 µM and the TGI [21] was greater than 100 µM. The TGI [22] was greater than 100 µM, the TGI [52] was greater than 100 µM and the TGI [23] was greater than 100 µM. It also gave a TGI [24] greater than 100 µM, a TGI [25] greater than 100 µM and a TGI [26] greater than 100 µM. The TGI [27] was greater than 100 µM, the TGI [53] was greater than 100 µM and the TGI [29] was greater than 100 µM. It also gave a TGI [30] greater than 100 µM, a TGI [31] greater than 100 µM and a TGI [32] greater than 100 µM. For the same compound, the TGI [33] was greater than 100 µM, the TGI [34] was greater than 100 µM and the TGI [54] was greater than 100 µM. For the same compound, the TGI [56] was 83.4 µM, the TGI [35] was greater than 100 µM and the TGI [36] was greater than 100 µM. For the same compound, the TGI [37] was greater than 100 µM, the TGI [38] was greater than 100 µM and the TGI [57] was greater than 100 µM. It also gave a TGI [39] greater than 100 µM, a TGI [40] greater than 100 µM and a TGI [58] greater than 100 µM. For the same compound, the TGI [41] was greater than 100 µM, the TGI [42] was greater than 100 µM and the TGI [43] was greater than 100 µM. It also gave a TGI [44] greater than 100 µM, a TGI [59] greater than 100 µM and a TGI [45] greater than 100 µM. For the same compound, the TGI [46] was greater than 100 µM, the TGI [47] was greater than 100 µM and the TGI [48] was greater than 100 µM.
